Assay results: publication PMC7059793, “Novel Chemical Scaffolds to Inhibit the Neutral Amino Acid Transporter B^0AT1 (SLC6A19), a Potential Target to Treat Metabolic Diseases” (Frontiers in Pharmacology, 2020)

How the values were obtained:
B^0AT1 [1] = biological target: T1, B^0AT1 (Homo sapiens, UniProt Q695T7); experiment: Membrane potential detecting FLIPR assay in CHO-BC cells; type: cell-based; conditions: 30 min pre-incubation, leucine or isoleucine 1.5 mM
T1 construct: expressed in transfected cells
T1 sequence (Q695T7 1-634): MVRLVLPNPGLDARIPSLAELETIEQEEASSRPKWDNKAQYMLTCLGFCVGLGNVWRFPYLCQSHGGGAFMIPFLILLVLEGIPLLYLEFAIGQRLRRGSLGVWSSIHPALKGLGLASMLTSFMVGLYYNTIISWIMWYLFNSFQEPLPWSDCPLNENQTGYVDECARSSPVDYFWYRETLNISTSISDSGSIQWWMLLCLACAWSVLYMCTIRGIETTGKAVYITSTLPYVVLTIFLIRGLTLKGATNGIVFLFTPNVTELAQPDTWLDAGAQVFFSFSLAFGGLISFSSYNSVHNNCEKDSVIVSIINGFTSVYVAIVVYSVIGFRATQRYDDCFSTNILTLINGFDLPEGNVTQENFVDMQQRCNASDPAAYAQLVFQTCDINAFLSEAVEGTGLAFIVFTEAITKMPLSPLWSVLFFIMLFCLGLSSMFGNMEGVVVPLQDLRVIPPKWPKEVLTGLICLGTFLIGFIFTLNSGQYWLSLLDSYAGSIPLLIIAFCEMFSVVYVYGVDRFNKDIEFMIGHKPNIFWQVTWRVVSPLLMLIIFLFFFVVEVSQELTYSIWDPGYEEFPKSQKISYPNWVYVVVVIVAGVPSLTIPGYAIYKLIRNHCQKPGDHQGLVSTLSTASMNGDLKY
T1 sequence (Q9HBJ8 15-222 partner): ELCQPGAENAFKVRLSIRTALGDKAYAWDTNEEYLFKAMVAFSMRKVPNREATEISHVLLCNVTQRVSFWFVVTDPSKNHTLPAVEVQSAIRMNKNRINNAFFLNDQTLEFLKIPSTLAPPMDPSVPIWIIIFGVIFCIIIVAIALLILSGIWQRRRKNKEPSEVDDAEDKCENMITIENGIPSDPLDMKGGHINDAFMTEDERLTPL
Procedure: CHO-B^0AT1-collectrin Cells (CHO-BC) were generated, cultured, and used as described recently ([Cheng et al., 2017]). Expression levels of B^0AT1 in CHO-BC cells decline over time. As a result, passages <10 were used for experiments. The cells were maintained in Ham’s F-12 glutamax media with 10% (v/v) fetal bovine serum (FBS, Heat inactivated, 10082147 Gibco), 1mM glutamine, 300μg/ml hygromycin B and 275 μg/ml geneticin.
Membrane depolarisation induced by amino acid transport was monitored using a FLIPR® kit (Molecular Devices, R8042 BLUE DYE). Before the assay, CHO-BC cells were seeded out at a density of 60,000 cells/well and maintained in a flat transparent bottom 96-well plate (Corning) overnight. After washing three times with Hank’s balanced salt solution (136.6 mM NaCl, 5.4 mM KCl, 0.44 mM KH2PO4, 2.7mM Na2HPO4, 1.26mM CaCl2, 0.5mM MgCl2, 0.4 mM MgSO4, 10mM HEPES, pH 7.5, supplemented with 5 mM glucose, abbreviated HBSS + G), cells in each well were incubated for 30 min at room temperature in 50 µl of HBSS pH 7.5 containing 5 mM glucose and compounds as indicated, together with 50 µl of dye-loading buffer provided with the kit. Subsequently, the fluorescence signal was detected every 10 s before and after the addition of leucine or isoleucine at a final concentration of 1.5 mM. Fluorescence was detected at room temperature using a PerkinElmer multimode Plate Reader, with an excitation wavelength of 530 nm and emission wavelength of 565 nm.
Data are shown as mean ± S.D., transport activities indicated as Na^+-dependent net uptake, were calculated by subtracting the uptake activity in the absence of Na^+ from the total uptake rate. The fluorescent signals measured in the FLIPR assay were normalized to baseline readings before the addition of substrates. Data are presented as percentage of baseline at each time point. IC50 was calculated using the equation: y=ymax(1−[x]/[x]+IC50) .

B^0AT1 [2] = biological target: T2, B^0AT1 (Mus musculus, UniProt Q9D687); experiment: Na+-dependent leucine uptake in inverted sections of mouse intestine; conditions: 50 μM inhibitor, 150 μM [14C]leucine
T2 construct: from tissue; host or cells: small intestine of C57/BL6J female mice, inverted 1 cm sections
T2 sequence (Q9D687 whole entry): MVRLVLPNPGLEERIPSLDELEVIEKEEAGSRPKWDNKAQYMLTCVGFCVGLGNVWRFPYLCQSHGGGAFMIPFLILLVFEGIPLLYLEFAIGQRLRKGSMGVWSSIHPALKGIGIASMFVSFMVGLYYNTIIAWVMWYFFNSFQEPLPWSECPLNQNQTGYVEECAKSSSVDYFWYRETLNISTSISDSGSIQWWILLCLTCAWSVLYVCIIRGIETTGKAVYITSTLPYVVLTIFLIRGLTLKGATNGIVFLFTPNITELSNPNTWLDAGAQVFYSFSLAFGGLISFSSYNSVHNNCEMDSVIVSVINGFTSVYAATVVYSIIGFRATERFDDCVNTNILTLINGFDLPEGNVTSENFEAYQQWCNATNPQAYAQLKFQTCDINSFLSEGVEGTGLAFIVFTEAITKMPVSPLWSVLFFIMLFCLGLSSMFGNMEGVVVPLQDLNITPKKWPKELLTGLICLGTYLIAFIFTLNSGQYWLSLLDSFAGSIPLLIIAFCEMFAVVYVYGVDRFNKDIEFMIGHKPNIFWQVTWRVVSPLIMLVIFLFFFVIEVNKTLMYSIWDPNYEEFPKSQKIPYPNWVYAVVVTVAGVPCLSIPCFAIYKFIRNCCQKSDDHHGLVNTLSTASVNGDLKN
T2 sequence (Q8R0I0 18-805 partner): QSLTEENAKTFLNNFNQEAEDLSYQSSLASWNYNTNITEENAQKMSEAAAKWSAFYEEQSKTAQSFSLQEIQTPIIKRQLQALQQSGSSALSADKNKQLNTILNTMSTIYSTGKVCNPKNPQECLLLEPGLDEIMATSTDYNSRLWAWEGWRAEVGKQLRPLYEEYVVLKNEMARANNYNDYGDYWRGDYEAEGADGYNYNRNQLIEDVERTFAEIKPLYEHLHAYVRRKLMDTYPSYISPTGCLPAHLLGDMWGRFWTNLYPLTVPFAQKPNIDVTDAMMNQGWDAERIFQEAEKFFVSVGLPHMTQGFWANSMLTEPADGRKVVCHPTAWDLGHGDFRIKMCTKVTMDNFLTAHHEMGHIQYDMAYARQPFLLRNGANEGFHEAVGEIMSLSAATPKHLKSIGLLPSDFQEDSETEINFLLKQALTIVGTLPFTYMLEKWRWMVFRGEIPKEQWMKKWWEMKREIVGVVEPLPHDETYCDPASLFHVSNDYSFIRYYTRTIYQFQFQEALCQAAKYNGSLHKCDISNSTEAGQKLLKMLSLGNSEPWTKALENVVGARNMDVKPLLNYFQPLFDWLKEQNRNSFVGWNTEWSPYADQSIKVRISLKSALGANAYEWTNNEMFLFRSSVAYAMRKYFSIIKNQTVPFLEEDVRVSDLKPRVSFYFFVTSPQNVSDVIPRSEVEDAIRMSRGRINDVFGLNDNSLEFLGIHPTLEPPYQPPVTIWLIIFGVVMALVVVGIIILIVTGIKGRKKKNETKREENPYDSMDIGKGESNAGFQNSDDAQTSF
Excerpt: For uptake assays with inverted sections of mouse small intestine, 5–7 months old C57/BL6J female mice were sacrificed by cervical dislocation (Animal ethics protocol A2016/41, Australian National University). The small intestine was removed and the intestinal lumen was rinsed with ice-cold 0.9% NaCl. Subsequently, the small intestine was inverted on a metal rod to expose the mucosa. The inverted intestine was then cut into 1 cm pieces and fitted onto enzyme spatulas, which were immersed in HBSS pH 7.5 supplemented with 1 mM glutamine and protease inhibitor (Roche Complete). After washing twice in modified HBSS pH 7.5 (containing 10% NaCl + 90% NMDG-Cl for Na^+-dependent uptake and 100% NMDG-Cl for Na^+-independent uptake, both buffers supplemented with 1 mM glutamine) to remove residual compounds, the segments were pre-incubated in the same buffer in the presence of 50 µM of transport inhibitor and protease inhibitors for 15 min. At the end of the pre-incubation, the segments were transferred for 30 s into uptake buffer at 37°C (HBSS pH 7.5 supplemented with 150 μM [^14C]leucine and 50 µM transport inhibitor). For Na^+-dependent uptake regular HBSS was used, for Na^+-independent uptake NaCl was replaced by NMDG-Cl. Subsequently, the segments were rinsed three times in ice-cold HBSS pH 7.5 and lysed in 400 µl of 10% SDS. After 2–3 h, the lysed tissues were analyzed by scintillation counting.
To test whether the novel B^0AT1 inhibitors block the transporter in a more physiological environment, we studied leucine uptake in inverted sections of mouse intestine ( Figure 6C ). We established previously that Na^+-dependent leucine uptake (blue bars) in this system is mediated by B^0AT1 ([Broer et al., 2011]). In addition leucine uptake has a Na^+-independent transport component (salmon coloured bars), which is most likely mediated by rbat/b^0,+AT. Because of variability between animals, all data were normalized to uninhibited controls from the same animal.

| SMILES | IC50 (B^0AT1 [1]) [µM] | Inhibition of Na+-dependent leucine uptake (B^0AT1) ex vivo (B^0AT1 [2]) |
| --- | --- | --- |
| Cc1cc(C(=O)Nc2ccc(Cl)cc2C(F)(F)F)no1 [CB3] | 1.9 ± 0.6 | more potent |
| Cc1cc(OCC(=O)NC(C)C)cc(C)c1Cl [Compound E4] | 13.7 ± 0.9 | limited capacity to inhibit B^0AT1 |
| COc1ccccc1Nc1nc2ccccc2s1 [Compound E18] | 4.2 ± 0.9 | more potent |
